Measurements: ChEMBL document CHEMBL3352377, “Discovery of selective and orally bioavailable protein kinase Cθ (PKCθ) inhibitors from a fragment hit” (J Med Chem, 2015)
pIC50: −log10 of the molar value.

Columns and labels:
[1] = Unbound intrinsic clearance in rat microsomes; format: ADME, Microsome
[2] = cells; conditions: Homo sapiens, T-Blast, 24 h
Description: Inhibition of anti-CD3/anti-CD28 antibody-induced IL2 production in human T-Blast cells after 24 hrs

[3] = Unbound intrinsic clearance in mouse microsomes; format: ADME, Microsome
[4] = biological target: Protein kinase C alpha type (Homo sapiens, UniProt P17252)
[5] = biological target: Protein kinase C gamma type (Homo sapiens, UniProt P05129); assay: Inhibition of human recombinant PKCgamma expressed in Sf21 cells using Bio-cdc peptide substrate and ATP after 60 mins by time-resolved fluorescence in-vitro kinase assay
[6] = biological target: T1, Protein kinase C epsilon type (Homo sapiens, UniProt Q02156); assay: Inhibition of human recombinant PKCepsilon expressed in Sf21 cells using Bio-cdc peptide substrate and ATP after 60 mins by time-resolved fluorescence in-vitro kinase assay
T1 sequence (Q02156 whole entry): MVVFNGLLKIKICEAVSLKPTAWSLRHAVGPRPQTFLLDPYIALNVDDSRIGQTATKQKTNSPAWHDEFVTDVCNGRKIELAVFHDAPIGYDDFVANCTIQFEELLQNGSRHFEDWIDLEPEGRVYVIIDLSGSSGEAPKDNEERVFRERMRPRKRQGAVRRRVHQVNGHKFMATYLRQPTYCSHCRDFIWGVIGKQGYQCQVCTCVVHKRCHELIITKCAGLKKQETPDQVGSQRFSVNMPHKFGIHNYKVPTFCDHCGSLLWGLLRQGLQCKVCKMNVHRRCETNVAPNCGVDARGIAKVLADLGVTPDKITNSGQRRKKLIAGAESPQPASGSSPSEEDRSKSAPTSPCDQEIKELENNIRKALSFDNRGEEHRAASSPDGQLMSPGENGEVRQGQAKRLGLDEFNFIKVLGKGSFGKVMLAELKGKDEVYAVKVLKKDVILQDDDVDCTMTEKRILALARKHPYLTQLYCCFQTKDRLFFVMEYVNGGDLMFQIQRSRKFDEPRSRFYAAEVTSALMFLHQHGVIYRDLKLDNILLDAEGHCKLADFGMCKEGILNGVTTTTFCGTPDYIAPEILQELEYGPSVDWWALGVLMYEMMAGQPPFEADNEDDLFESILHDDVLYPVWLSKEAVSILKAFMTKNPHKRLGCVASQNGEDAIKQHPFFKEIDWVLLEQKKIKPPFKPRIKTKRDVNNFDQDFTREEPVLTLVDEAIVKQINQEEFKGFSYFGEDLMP

[7] = biological target: Protein kinase C beta type (Homo sapiens, UniProt P05771); assay: Inhibition of human recombinant PKCbeta expressed in Sf21 cells using Bio-cdc peptide substrate and ATP after 60 mins by time-resolved fluorescence in-vitro kinase assay
[8] = AUC in rat at 1 mg/kg, iv or 3 mg/kg, po; format: ADME, organism-based; conditions: plasma
[9] = biological target: T2, Protein kinase C theta type (Homo sapiens, UniProt Q04759)
Description: Inhibition of human recombinant PKCtheta expressed in Sf21 cells using Bio-cdc peptide substrate and ATP after 60 mins by time-resolved fluorescence in-vitro kinase assay

[10] = Oral bioavailability in rat at 3 mg/kg; format: ADME, organism-based; conditions: in vivo
[11] = Inhibition of human recombinant […] expressed in Sf21 cells using Bio-cdc peptide substrate and ATP after 60 mins by time-resolved fluorescence in-vitro kinase assay
[12] = biological target: Protein kinase C delta type (Homo sapiens, UniProt Q05655); assay: Inhibition of human recombinant PKCdelta expressed in Sf21 cells using Bio-cdc peptide substrate and ATP after 60 mins by time-resolved fluorescence in-vitro kinase assay
[13] = Plasma clearance in rat at 1 mg/kg, iv or 3 mg/kg, po; format: ADME, organism-based
[14] = Cmax in rat at 1 mg/kg, iv or 3 mg/kg, po; format: ADME, organism-based; conditions: in vivo
[15] = Permeability from apical to basolateral side in MDCK2-MDR1 cells at pH 7.4; format: ADME, cell-based, Canis lupus familiaris, MDCK-II; conditions: dog, MDCK-MDR1, pH 7.4; read-out: permeability
[16] = Unbound intrinsic clearance in human microsomes; format: ADME, Microsome
[17] = Half life in rat at 1 mg/kg, iv or 3 mg/kg, po; format: ADME, organism-based; conditions: in vivo
[18] = biological target: T3, Protein kinase C zeta type (Homo sapiens, UniProt Q05513); assay: Inhibition of human recombinant PKCzeta expressed in Sf21 cells using Bio-cdc peptide substrate and ATP after 60 mins by time-resolved fluorescence in-vitro kinase assay
T3 sequence (Q05513 whole entry): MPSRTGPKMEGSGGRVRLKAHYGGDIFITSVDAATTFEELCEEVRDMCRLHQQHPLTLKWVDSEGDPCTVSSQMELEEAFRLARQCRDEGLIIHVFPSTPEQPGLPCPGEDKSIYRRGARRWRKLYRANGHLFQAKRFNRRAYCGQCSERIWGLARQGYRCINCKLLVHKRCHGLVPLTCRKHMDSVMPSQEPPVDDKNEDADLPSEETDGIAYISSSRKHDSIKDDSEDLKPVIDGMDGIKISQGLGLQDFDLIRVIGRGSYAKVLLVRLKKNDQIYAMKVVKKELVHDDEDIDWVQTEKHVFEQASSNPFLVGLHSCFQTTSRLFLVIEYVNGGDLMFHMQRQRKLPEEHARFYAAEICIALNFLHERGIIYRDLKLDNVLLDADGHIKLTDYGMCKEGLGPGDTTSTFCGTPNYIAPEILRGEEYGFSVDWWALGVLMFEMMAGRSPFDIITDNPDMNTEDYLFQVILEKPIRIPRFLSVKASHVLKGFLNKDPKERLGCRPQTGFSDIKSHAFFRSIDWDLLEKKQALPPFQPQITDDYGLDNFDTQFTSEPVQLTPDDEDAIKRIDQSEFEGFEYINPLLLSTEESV

[19] = biological target: Focal adhesion kinase 1 (Homo sapiens, UniProt Q05397); assay: Inhibition of FAK (unknown origin) by TR-FRET assay
[20] = biological target: T2, Protein kinase C theta type; assay: Inhibition of human recombinant PKCtheta by TR-FRET assay

T2 sequence (Q04759 whole entry): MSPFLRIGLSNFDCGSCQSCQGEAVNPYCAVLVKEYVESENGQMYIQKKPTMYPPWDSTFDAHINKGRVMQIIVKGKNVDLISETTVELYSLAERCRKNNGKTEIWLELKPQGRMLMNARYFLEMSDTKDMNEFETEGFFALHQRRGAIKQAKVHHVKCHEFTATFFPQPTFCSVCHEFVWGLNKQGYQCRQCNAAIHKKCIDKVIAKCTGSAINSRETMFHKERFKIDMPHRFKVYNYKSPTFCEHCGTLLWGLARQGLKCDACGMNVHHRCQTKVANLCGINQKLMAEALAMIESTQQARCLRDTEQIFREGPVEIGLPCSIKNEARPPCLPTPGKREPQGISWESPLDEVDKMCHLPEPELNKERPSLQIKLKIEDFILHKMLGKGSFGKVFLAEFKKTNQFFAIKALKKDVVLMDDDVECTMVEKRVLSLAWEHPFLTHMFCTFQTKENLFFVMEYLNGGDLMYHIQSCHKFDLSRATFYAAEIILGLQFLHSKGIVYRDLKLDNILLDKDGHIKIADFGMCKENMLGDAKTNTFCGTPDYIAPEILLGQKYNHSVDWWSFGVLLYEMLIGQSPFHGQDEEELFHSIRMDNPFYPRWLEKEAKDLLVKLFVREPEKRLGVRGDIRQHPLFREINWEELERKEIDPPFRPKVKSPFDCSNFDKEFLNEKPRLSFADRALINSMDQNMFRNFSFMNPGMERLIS
Chain of Protein kinase C beta type (P05771 whole entry): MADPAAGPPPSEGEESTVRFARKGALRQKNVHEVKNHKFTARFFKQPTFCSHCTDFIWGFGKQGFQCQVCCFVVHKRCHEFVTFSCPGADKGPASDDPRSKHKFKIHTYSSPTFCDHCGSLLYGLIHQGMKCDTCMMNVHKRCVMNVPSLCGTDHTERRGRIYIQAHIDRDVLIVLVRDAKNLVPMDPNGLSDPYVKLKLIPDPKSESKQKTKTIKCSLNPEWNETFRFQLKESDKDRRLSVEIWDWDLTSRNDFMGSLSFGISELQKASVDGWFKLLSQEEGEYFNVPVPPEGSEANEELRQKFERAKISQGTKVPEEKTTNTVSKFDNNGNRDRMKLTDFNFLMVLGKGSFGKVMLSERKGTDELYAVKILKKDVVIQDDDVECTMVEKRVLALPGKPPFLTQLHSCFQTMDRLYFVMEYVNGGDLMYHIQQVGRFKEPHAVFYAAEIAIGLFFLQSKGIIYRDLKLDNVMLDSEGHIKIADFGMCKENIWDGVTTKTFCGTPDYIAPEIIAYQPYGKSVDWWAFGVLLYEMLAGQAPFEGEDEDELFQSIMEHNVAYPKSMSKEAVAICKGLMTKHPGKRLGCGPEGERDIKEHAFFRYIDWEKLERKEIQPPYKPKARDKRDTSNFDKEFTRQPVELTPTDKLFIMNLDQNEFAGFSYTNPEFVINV
Chain of Protein kinase C delta type (Q05655 whole entry): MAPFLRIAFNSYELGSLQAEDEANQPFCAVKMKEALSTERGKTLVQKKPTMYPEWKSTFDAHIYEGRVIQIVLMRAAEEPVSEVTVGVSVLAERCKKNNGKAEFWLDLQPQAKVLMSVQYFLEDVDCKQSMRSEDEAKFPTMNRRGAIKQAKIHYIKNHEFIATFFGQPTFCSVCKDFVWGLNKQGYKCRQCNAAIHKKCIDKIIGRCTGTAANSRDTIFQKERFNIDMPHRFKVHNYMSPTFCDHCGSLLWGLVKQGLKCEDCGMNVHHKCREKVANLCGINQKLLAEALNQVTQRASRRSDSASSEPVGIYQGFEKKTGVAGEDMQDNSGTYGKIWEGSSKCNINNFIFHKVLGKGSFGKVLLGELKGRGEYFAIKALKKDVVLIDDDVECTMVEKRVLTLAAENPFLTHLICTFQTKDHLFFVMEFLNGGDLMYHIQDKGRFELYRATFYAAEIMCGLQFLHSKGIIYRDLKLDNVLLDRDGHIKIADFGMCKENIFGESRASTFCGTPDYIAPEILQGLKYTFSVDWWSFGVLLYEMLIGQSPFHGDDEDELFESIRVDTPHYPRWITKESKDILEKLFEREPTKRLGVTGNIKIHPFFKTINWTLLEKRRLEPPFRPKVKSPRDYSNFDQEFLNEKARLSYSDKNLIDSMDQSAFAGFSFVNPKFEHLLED
Chain of Focal adhesion kinase 1 (Q05397 whole entry): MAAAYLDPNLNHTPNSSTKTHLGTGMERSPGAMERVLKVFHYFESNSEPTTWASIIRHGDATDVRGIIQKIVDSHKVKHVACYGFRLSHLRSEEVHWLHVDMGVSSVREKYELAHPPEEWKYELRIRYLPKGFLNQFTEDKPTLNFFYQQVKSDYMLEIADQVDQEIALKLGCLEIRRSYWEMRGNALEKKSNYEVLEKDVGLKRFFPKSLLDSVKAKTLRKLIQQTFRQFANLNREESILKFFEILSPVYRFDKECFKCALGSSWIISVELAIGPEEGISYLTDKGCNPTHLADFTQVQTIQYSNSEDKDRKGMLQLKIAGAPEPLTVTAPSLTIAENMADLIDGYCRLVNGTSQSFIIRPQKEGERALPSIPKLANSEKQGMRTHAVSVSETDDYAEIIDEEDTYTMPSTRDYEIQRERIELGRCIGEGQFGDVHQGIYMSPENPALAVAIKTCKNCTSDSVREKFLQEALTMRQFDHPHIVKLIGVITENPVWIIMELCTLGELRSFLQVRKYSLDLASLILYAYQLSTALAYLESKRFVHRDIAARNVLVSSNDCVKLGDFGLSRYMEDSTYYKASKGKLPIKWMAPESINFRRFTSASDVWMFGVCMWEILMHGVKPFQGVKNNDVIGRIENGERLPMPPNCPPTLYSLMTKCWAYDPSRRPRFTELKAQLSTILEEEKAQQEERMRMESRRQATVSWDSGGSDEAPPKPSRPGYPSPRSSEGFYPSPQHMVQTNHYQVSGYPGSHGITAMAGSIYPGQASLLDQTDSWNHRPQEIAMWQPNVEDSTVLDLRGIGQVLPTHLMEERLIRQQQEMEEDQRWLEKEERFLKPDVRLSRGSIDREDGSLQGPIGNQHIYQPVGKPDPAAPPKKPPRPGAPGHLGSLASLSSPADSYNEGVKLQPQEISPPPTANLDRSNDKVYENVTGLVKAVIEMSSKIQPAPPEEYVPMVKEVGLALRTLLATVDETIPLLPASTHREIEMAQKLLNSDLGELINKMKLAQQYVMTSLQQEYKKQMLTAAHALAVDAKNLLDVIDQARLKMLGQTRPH

SMILES: C[C@@H]1C(=O)NN=C2COc3cc(-c4ccccc4)c(NC4CNC4)cc3N21
- CL free [1]: 200 mL/min/kg
- pIC50 [2]: 6.92
- CL free [3]: 467 mL/min/kg
- pIC50 [4]: 5.74
- pIC50 [5]: 4.89
- pIC50 [6]: 6.34
- pIC50 [7]: 7.06
- AUC [8]: 43 ng·h/mL
- pIC50 [9]: 7.31
- bioavailability [10]: 5.4%
- pIC50 [11]: 6.07
- pIC50 [12]: 6.48
- clearance [13]: 81.7 mL/min/kg
- Cmax [14]: 5.3 ng/mL
- Papp A→B [15]: 0.27 ×10⁻⁶ cm/s
- CL free [16]: 90 mL/min/kg
- half-life [17]: 5.9 h
- pIC50 [18]: 5.07

SMILES: O=C1CN2C(=NN1)COc1ccccc12
- pIC50 [4]: < 4.30
- pIC50 [19]: 3.81
- pIC50 [20]: 4.72
- pIC50 [9]: 3.34

SMILES: Cc1cc2c(cc1NC1CNC1)N1C(=NNC(=O)[C@H]1C)CO2
- pIC50 [2]: 6.57
- pIC50 [4]: 5.29
- pIC50 [5]: 4.64
- pIC50 [7]: 6.28
- AUC [8]: 60 ng·h/mL
- pIC50 [9]: 7.26
- bioavailability [10]: 9.2%
- pIC50 [12]: 6.12
- clearance [13]: 81.7 mL/min/kg
- Cmax [14]: 8.7 ng/mL
- Papp A→B [15]: 0.35 ×10⁻⁶ cm/s
- CL free [16]: 40 mL/min/kg
- half-life [17]: 3 h
